# Laboratory results as given in article PMC10945332, “Precision peptide theranostics: developing N- to C-terminus optimized theranostics targeting cholecystokinin-2 receptor” (Theranostics, 2024).
# How the values were obtained:
# CCK2R = system: CCK2R; design: method as in PMID 33826325; conditions: peptide with gallium coordinated DOTA at the N-terminus; previously assessed; read-out: affinity for CCK2R; cited from earlier work
# A431-CCK2R tumors = conditions: A431-CCK2R/NSG mouse model; 1 hour post-injection; data shown for [177Lu]Lu-CP04; cited from earlier work
# AR42J xenografts = conditions: AR42J xenografts; [68Ga]Ga labeled; 1 hour post-injection; cited from earlier work
# human CCK2R = target: T1, human CCK2R (Homo sapiens, UniProt P32239); experiment: Competitive binding against [177Lu]Lu-DOTA-CP04 in A431-CCK2R cells
# T1 construct: stably transfected to over-express the human full-length CCK2R (A431-CCK2R); expressed in transfected cells
# T1 sequence (P32239 1-447): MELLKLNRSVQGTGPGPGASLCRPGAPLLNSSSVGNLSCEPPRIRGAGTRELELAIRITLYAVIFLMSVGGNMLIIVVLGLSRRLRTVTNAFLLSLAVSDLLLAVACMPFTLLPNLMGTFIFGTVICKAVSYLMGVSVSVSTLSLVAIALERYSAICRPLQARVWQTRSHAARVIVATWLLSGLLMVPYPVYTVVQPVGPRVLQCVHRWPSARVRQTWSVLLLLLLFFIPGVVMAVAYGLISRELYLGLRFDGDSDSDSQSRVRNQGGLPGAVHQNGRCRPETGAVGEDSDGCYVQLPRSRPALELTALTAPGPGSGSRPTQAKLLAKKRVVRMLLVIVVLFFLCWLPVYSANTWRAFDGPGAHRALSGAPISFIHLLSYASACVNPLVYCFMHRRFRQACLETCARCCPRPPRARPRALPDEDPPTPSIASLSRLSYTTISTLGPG
# Method: Materials and Methods: Biology […]
# In Vitro CCK2R-Ligand Competitive Binding Assays
# All CCK2R binding experiments were conducted using A431 (human epidermoid carcinoma) […]
# cells stably transfected to over-express the human full-length CCK2R (A431-CCK2R) (gifted […]
# by Dr. Elisabeth von Guggenberg, Medizinische Universität Innsbruck).[41] As a negative […]
# control, A431 cells stably transfected with an empty vector were analysed simultaneously […]
# (A431-EV). All A431 cells were maintained in DMEM (Gibco, Australia) media supplemented […]
# with 10% foetal calf serum and 250 µg/mL G418 as described previously.[32]
# The affinity of all peptides for the CCK2R was evaluated using competitive binding assays […]
# Briefly, 48 hours before the experiment […]
# cells were plated at a density of 300,000 cells per well in 12 well plates. On the day of the […]
# experiment, linear peptides were diluted in DMEM supplemented with 1% foetal calf serum to […]
# DOTA-CP04 was added to each dilution. Cells were washed twice in ice-cold binding buffer […]
# (DMEM supplemented with 1% foetal calf serum) and resuspended in 1 mL of the pre-prepared […]
# peptide mix before being incubated at room temperature for 1 hour. Post-incubation the media […]
# was removed and kept for analysis (unbound fraction) and the cells were washed twice in ice- […]
# cold PBS which was pooled with the unbound fraction. Finally, 1 M NaOH (150µL) was added […]
# to the wells and allowed to incubate for 5 min before lysates were collected (bound fraction).
# A small volume of lysate was kept aside to determine protein concentration using the Pierce® BCA protein assay kit (Thermo Fisher, Australia). All samples were analysed using the Perkin […]
# normalised according to protein concentration. Half maximal inhibitory concentration (IC50) was determined using nonlinear regression calculated using Gr aphPad Prism Software (GraphPad Software, California, USA). […]
structure (smiles),measurement,setting,value
"CSCC[C@H](NC(=O)[C@H](Cc1c[nH]c2ccccc12)NC(=O)CNC(=O)[C@H](Cc1ccc(O)cc1)NC(=O)[C@H](C)NC(=O)[C@@H](CCC(=O)O)NC(=O)[C@@H](CCC(=O)O)NC(=O)[C@@H](CCC(=O)O)NC(=O)[C@@H](CCC(=O)O)NC(=O)[C@@H](CCC(=O)O)NC(=O)[C@H](N)CCC(=O)O)C(=O)N[C@@H](CC(=O)O)C(=O)N[C@@H](Cc1ccccc1)C(N)=O [CP04, reference compound]",IC50,CCK2R,0.76 nM
same,Tumor uptake,A431-CCK2R tumors,2.5 ± 0.3 [62] % ID/g
same,Tumor uptake,AR42J xenografts,5.5 ± 0.8 [34] % ID/g
same,IC50,human CCK2R,2.33 nM
same,fold decrease in affinity for CCK2R without gallium coordinated DOTA at the N-terminus,human CCK2R; linear peptide vs its Ga-DOTA form,greater than 3 fold
